Results from patent US11142515B2, “Pyrazolyl-ureas as kinase inhibitors” (RESPIVERT LIMITED, priority 2014, dated 2021).

Tests used:
[1] = tested on: sputum macrophages from COPD patients; assay: Cytokine production in LPS-treated sputum macrophages from COPD patients; format: cell-based, human
Method: Patients with COPD inhaled a nebulised solution of 3% (w/v) hypertonic saline using an ultrasonic nebuliser (Devilbiss, Carthage, Mo.) with tidal breathing for 5 min. This procedure was repeated a maximum of three times until enough sputum was obtained. The sputum samples were homogenized and mixed vigorously using a vortex mixer in 0.02% v/v dithiothreitol (DTT) solution. The samples were re-suspended in PBS (40 mL) followed by centrifugation at 1500 rpm at 4° C. for 10 min to obtain sputum cell pellets. The pellets were washed with PBS (40 mL). The sputum cells were then re-suspended in 4 mL macrophage serum-free medium (macrophage-SFM, Life technologies, containing 20 U/mL penicillin, 0.02 mg/mL streptomycin and 5 μg/mL amphotericin B) and seeded on high bound 96-well plate, followed by incubation for 1 h at 37° C. and at 5% CO2 to allow the macrophages to attach to the bottom of the plate. The cells on the plate were washed with fresh macrophage-SFM (200 μL/well) to remove neutrophils and other contaminated cells. The adherent cells (mainly sputum macrophages) on the plate were used for further analysis. Sputum inductions were conducted in Quintiles Drug Research Unit at Guys Hospital and ethics approval and written informed consent was obtained by Quintiles.
Where appropriate, 1 μL of a solution containing either the test compound or reference article at the stated concentrations (either 0.1 μg/mL, 0.01 μg/mL, or 0.001 μg/mL) or alternatively 1 μL of DMSO as the vehicle control was added to each well (200 μL in media) and the cells were incubated for 2 h. The cells were stimulated with LPS solution (50 μL, final concentration: 1 μg/mL) and incubated for 18 h at 37° C. and 5% CO2. The supernatant was then collected and kept at −80° C. Suitable luminex kits were used to measure the selected analytes. After thawing the supernatant, the magnetic antibody beads were multiplexed and incubated in a 96-well plate with standard, background solution or the appropriate volume of sample overnight with shaking at 4° C. After washing twice with 200 μL of wash buffer provided by the kit per well using a magnetic plate washer, the beads were incubated for 1 h at RT with the biotin conjugated antibody solution provided by the kit with shaking. Streptavidin solution was added for 30 min with shaking at RT. After washing with 200 μL wash buffer per well, the beads were resuspended in sheath fluid (150 μL) and analyzed immediately. The level of each analyte in the supernatant was calculated using Xcel Fit software with a 4 or 5-parameter equation using each standard curve. The inhibitions of each cytokine production were calculated at each concentration by comparison with vehicle control.

[2] = tested on: neutrophil accumulation in BALF; assay: LPS-induced neutrophil accumulation in mice; format: in vivo, Balb/c mice; conditions: 1.75 μg/mouse
Method: Non-fasted Balb/c mice were […] by the intra tracheal route with either vehicle, or the test substance at the indicated times (within the range 2-8 h) before stimulation of the inflammatory response by application of an LPS challenge. At T=0, mice were placed into an exposure chamber and exposed to LPS (7.0 mL, 0.5 mg/mL solution in PBS for 30 min). After a further 8 h the animals were anesthetized, their tracheas cannulated and BALF extracted by infusing and then withdrawing from their lungs 1.0 mL of PBS via the tracheal catheter. Total and differential white cell counts in the BALF samples were measured using a Neubaur haemocytometer. Cytospin smears of the BALF samples were prepared by centrifugation at 200 rpm for 5 min at RT and stained using a DiffQuik stain system (Dade Behring). Cells were counted using oil immersion microscopy. Data for neutrophil numbers in BAL are shown as mean±S.E.M. (standard error of the mean). The percentage inhibition of neutrophil accumulation was calculated for each treatment relative to vehicle treatment.

[3] = tested on: alveolar macrophages and neutrophils in BALF; assay: Cigarette smoke model: macrophages and neutrophils in BALF; format: in vivo, A/J mice; conditions: 1.75 μg/mouse (35 μL, bid, i.n.)
Method: A/J mice (males, 5 weeks old) were exposed to cigarette smoke (4% cigarette smoke, diluted with air) for 30 min/day for 11 days using a Tobacco Smoke Inhalation Experiment System for small animals (Model SIS-CS; Sibata Scientific Technology, Tokyo, Japan). […] At 12 h after the last […], each of the animals was anesthetized, the trachea cannulated and bronchoalveolar lavage fluid (BALF) was collected. The numbers of alveolar macrophages and neutrophils were determined by FACS analysis (EPICS® ALTRA II, Beckman Coulter, Inc., Fullerton, Calif., USA) using anti-mouse MOMA2 antibody (macrophage) or anti-mouse 7/4 antibody (neutrophil). BALF was centrifuged and the supernatant was collected. The level of keratinocyte chemoattractant (KC; CXCL1) in BALF was quantitated using a Quantikine® mouse KC ELISA kit (R&D systems, Inc., Minneapolis, Minn., USA).

Syk = molecular target: T1, Syk (Homo sapiens, UniProt P43405); assay: Syk enzyme inhibition (Z-LYTE FRET); format: biochemical
T1 construct: purchased Life Technologies
Method: (§1) The enzyme inhibitory activities of compounds disclosed herein were determined by FRET using synthetic peptides labelled with both donor and acceptor fluorophores (Z-LYTE, Life Technologies, Paisley, UK).
The relevant enzyme (1000 ng/mL, 1400 ng/mL or 2000 ng/mL respectively, 2.5 μL) was incubated with the test compound (either 40 μg/mL, 12 μg/mL, 4 μg/mL, 1.2 μg/mL, 0.4 μg/mL, 0.12 μg/mL, 0.04 μg/mL, 0.012 μg/mL, 0.004 μg/mL or 0.0012 μg/mL, 2.5 μL each) for 2 h at RT. The FRET peptides (8 μM, 2.5 μL), and appropriate ATP solutions (2.5 μL, 800 μM for c-Src, and 60 μM ATP for HCK and Syk) were then added to the enzyme/compound mixtures and incubated for 1 h at RT. Development reagent (protease, 5 μL) was added for 1 h prior to detection in a fluorescence microplate reader (EnVision, Perkin Elmer).
(§2) In all cases, the site-specific protease cleaves non-phosphorylated peptide only and eliminates the FRET signal. Phosphorylation levels of each reaction were calculated using the ratio of coumarin emission (donor) over fluorescein emission (acceptor), for which low ratios indicate high phosphorylation and high ratios indicate low phosphorylation levels.

GSK 3α enzyme isoform = molecular target: T2, GSK 3α enzyme isoform (Homo sapiens, UniProt P49840); assay: GSK 3α enzyme inhibition (Z-LYTE FRET); format: biochemical
T2 construct: purchased Life Technologies
T2 sequence (P49840 whole entry, canonical isoform): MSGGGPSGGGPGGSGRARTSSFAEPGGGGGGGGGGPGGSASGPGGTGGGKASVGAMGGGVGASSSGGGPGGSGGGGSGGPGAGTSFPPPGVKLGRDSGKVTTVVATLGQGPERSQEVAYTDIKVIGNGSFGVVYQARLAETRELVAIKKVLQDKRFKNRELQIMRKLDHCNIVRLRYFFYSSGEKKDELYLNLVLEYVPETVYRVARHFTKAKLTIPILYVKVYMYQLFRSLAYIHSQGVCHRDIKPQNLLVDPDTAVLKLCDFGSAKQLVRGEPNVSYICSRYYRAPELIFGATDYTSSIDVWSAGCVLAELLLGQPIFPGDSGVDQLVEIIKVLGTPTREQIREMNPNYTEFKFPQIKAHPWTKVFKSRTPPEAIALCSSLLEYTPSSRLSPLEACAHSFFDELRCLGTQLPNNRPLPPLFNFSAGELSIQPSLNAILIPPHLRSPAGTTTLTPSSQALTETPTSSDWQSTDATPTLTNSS
Method: as §1
The GSK3a protein (500 ng/mL, 2.5 μL) was incubated with the test compound (2.5 μL at either 40 μg/mL, 12 μg/mL, 4 μg/mL, 1.2 μg/mL, 0.4 μg/mL, 0.12 μg/mL, 0.04 μg/mL, 0.012 μg/mL, 0.004 μg/mL or 0.0012 μg/mL) for 2 h at RT. The FRET peptide (8 μM, 2.5 μL), which is a phosphorylation target for GSK3α, and ATP (40 μM, 2.5 μL) was then added to the enzyme/compound mixture and the resulting mixture incubated for 1 h at RT. Development reagent (protease, 5 μL) was added for 1 h prior to detection in a fluorescence microplate reader (EnVision, Perkin Elmer).
as §2

PBMCs (mitosis) = assay: Cell mitosis assay in PHA-treated PBMCs; format: cell-based, human
Method: Peripheral blood mononucleocytes (PBMCs) from healthy subjects were separated from whole blood (Quintiles, London, UK) using a density gradient (Histopaquee-1077, Sigma-Aldrich, Poole, UK). The PBMCs (3 million cells per sample) were subsequently treated with 2% PHA (Sigma-Aldrich, Poole, UK) for 48 h, followed by a 20 h exposure to varying concentrations of test compounds. At 2 h before collection, PBMCs were treated with demecolcine (0.1 μg/mL; Life Technologies, Paisley, UK,) to arrest cells in metaphase.

d-U937 cells = assay: Cell viability: MTT assay in differentiated U937 cells; format: cell-based, human; conditions: 10 μg/mL
Method: Differentiated U937 cells were pre-incubated with each test compound (final concentration 10 μg/mL in 200 μL media indicated below) under two protocols: the first for 4 h in 5% FCS RPMI1640 media and the second in 10% FCS RPMI1640 media for 24 h. The supernatant was replaced with new media (200 μL) and MTT stock solution (10 μL, 5 mg/mL) was added to each well. After incubation for 1 h the media were removed, DMSO (200 μL) was added to each well and the plates were shaken lightly for 1 h prior to reading the absorbance at 550 nm. The percentage loss of cell viability was calculated for each well relative to vehicle (0.5% DMSO) treatment. Consequently an apparent increase in cell viability for drug treatment relative to vehicle is tabulated as a negative percentage.

[4] = tested on: HRV (RV16)-induced IL-8 release in BEAS2B cells; assay: Rhinovirus-induced IL-8 release in BEAS2B cells; format: cell-based, human
Method: Human rhinovirus RV16 is obtained from the American Type Culture Collection (Manassas, Va.). Viral stocks are generated by infecting MRC5 cells with HRV until 80% of the cells were cytopathic.
BEAS2B cells are infected with HRV at an MOI of 1.2 and incubated for 1 h at 33° C. with gentle shaking to promote absorption. The cells are then washed with PBS, fresh media added and the cells are incubated for a further 72 h. The supernatant is collected for assay of IL-8 concentrations using a Duoset ELISA development kit (R&D systems, Minneapolis, Minn.). Compounds are added 2 h before HRV infection and 1 h after infection when non-infected HRV is washed out.

Compound | inhibition at 0.1 µg/mL ([1]; Homo sapiens, Macrophage, read-out: E-max (maximum inhibition), IL-6 production in LPS-treated sputum macrophages) | inhibition of LPS-induced neutrophil accumulation [2] | neutrophil or macrophage accumulation into airways (cigarette smoke model) [3] | inhibitory activity against Syk (in words) (Syk) | inhibitory activity against GSK3a (in words) (GSK 3α enzyme isoform) | impact on cell division (mitosis) compared with Reference Compound (PBMCs (mitosis)) | MTT Assay Cell viability at time point indicated in d-U937 Cells, 4 h (d-U937 cells; 4 h) | MTT Assay Cell viability at time point indicated in d-U937 Cells, 24 h (d-U937 cells; 24 h) | inhibition of pro-inflammatory cytokine production in sputum macrophage compared with fluticasone propionate [1] | inhibition of HRV-induced IL-8 (FIG. 1) [4]
CCC(=O)O[C@]1(C(=O)SCF)[C@H](C)C[C@H]2[C@@H]3C[C@H](F)C4=CC(=O)C=C[C@]4(C)[C@@]3(F)[C@@H](O)C[C@@]21C [Fluticasone propionate, fluticasone propionate, reference compound] | 42% | > 80% | did not inhibit | – | – | – | – | – | – | –
CCc1cncc(Nc2cc(COc3ccc(NC(=O)Nc4cc(C(C)(C)C)nn4-c4ccc(C)cc4)c4ccccc34)ccn2)n1 [Example 2, 1-(3-(tert-Butyl)-1-(p-tolyl)-1H-pyrazol-5-yl)-3-(4-((2-((6-ethylpyrazin-2-yl)amino)pyridin-4-yl)methoxy)naphthalen-1-yl)urea] | – | – | – | very much weaker than the Reference Compound | very much weaker than the Reference Compound | markedly less activity | − (−ve and +ve indicate the value is below and above, respectively, the no significant effect threshold defined as 30% inhibition at 10 μg/mL at the time point indicated) | − (−ve and +ve indicate the value is below and above, respectively, the no significant effect threshold defined as 30% inhibition at 10 μg/mL at the time point indicated) | higher efficacy | dose-dependent inhibition
